From patent publication US8022072B2, “Azolylmethylidenehydrazine derivative and use thereof” (Kaken Pharmaceutical Co., Ltd., priority 2007, dated 2011)
Converted amounts (≈) assume the structure as drawn.

Key:
Format in all cases: cell-based
[1] = test system: Trichophyton mentagrophytes KD-04; test: Antifungal activity evaluation test, MIC, Trichophyton mentagrophytes KD-04; settings: KD04, 168 h, Sabouraud Dextrose Broth, 30° C., 7 days, visual, read-out: MIC T. men. KD-04
Protocol: (§1) The minimum inhibitory concentration (MIC) for Trichophyton mentagrophytes, Trichophyton rubrum, and Malassezia furfur was measured according to the following procedure. • Test compound solution: A test compound was dissolved in dimethyl sulfoxide (DMSO) at a concentration of 5 mg/mL as a stock solution. […] Then, as a test medium, a fungal solution of Trichophyton species was 100-fold diluted with Sabouraud Dextrose Broth (Difco), and a fungal solution of Malassezia furfur IFO-0656 was 100-fold diluted with MU medium to give each inoculum (2×10^4 cells/mL). • Measurement of MIC of Trichophyton fungi: Sabouraud Dextrose Broth (Difco) was dispensed by 100 μL to a given well of a 96 well flat microplate. Then, a test compound solution (2 μL) was added, and the mixture was thoroughly mixed with a plate mixer. A fungal solution (100 μL) was inoculated and cultured at 30° C. for 7 days. The presence or absence of the cell growth was visually observed, and the minimum medicament concentration at which the cell growth was prevented was taken as MIC (μg/mL). • Measurement of MIC of Malassezia furfur: Since the urease activity of this fungus and the fungus growth rate are co-related, MIC was evaluated by the following method using urease activity as an index. MU medium was dispensed by 100 μL to a given well of a 96 well flat microplate. Then, a test compound solution (2 μL) was added, and the mixture was thoroughly mixed with a plate mixer. A fungal solution (100 μL) was inoculated and cultured at 30° C. The culture was stopped on day 4 or 5 of culture when the color tone of the MU medium changes from yellow to red in visual observation of the fungus growth in a well free of addition of a test substance. Then the plate was stirred until the fungus became uniform, and the urease activity was measured based on the measurement of absorbance at 550 nm using a plate reader.

[2] = test system: Trichophyton rubrum KD-101; test: Antifungal activity evaluation test, MIC, Trichophyton rubrum KD-101; settings: KD101, 168 h, Sabouraud Dextrose Broth, 30° C., 7 days, visual, read-out: MIC T. rub. KD-101
Protocol: as §1

[3] = test system: Trichophyton mentagrophytes KD-04; test: Influence of keratin addition on anti-Trichophyton activity; settings: for MIC: Trichophyton mentagrophytes, KD04, 168 h, 30° C., 7 days; for MIC increase by the addition of keratin to medium: Trichophyton, text summary of Table 4
Protocol: The MIC increase rate by the addition of keratin to a medium was measured by the following procedure. • Test compound solution: A test compound was dissolved in dimethyl sulfoxide (DMSO) at a concentration of 5 mg/mL as a stock solution. Diluting this solution with DMSO, a 2-fold dilution series was prepared. • Test strain: Trichophyton mentagrophytes KD-04 was used. Preparation of Fungal Inoculum: the Above-Mentioned Strain was suspended in 0.05% Tween 80-containing physiological saline, and adjusted to a fungus concentration of 2×10^6 cells/mL using a counting chamber. […] The physiological saline was removed, and the mixture was further washed once with physiological saline (3 mL). The physiological saline was removed, and a test compound solution (10 μL) and Sabouraud Dextrose Broth (Difco) (500 μL) were added to keratin, and the mixture was sufficiently stirred. Then, inoculum (500 μL) of T. mentagrophytes KD-04 was added, and the mixture was cultured at 30° C. for 7 days. As a comparison control, an experiment similar to the above was performed under conditions free of keratin addition.

[4] = test system: Malassezia furfur IFO-0656; test: Antifungal activity evaluation test, MIC by urease activity, Malassezia furfur IFO-0656; settings: IFO0656, 96 h, MU medium, 30° C., day 4 or 5, urease activity of 20% or below, read-out: MIC M. fur. IFO-0656
Protocol: as §1

[5] = test system: Trichophyton mentagrophytes SM-110; test: Antifungal activity evaluation test, MIC, Trichophyton mentagrophytes SM-110; settings: SM110, 168 h, Sabouraud Dextrose Broth, 30° C., 7 days, visual, read-out: MIC T. men. SM-110
Protocol: as §1

[6] = test system: Trichophyton rubrum KD-107; test: Antifungal activity evaluation test, MIC, Trichophyton rubrum KD-107; settings: KD107, 168 h, Sabouraud Dextrose Broth, 30° C., 7 days, visual, read-out: MIC T. rub. KD-107
Protocol: as §1

[7] = T. mentagrophytes KD-04, free of keratin addition, read-out: MIC SDB alone
[8] = T. mentagrophytes KD-04, keratin 50 mg added, read-out: MIC SDB + keratin

Row | SMILES | MIC [1] | MIC [2] | MIC [3, 7] | MIC [3, 8] | MIC [4] | MIC [5] | MIC [6] | MIC increase by the addition of keratin to medium [3]
1 | CCC(C)(C)c1ccc(CC(C)CN2C[C@@H](C)O[C@@H](C)C2)cc1 (some centres unmarked) [AMF, amorolfine, reference compound] | 0.1 µg/mL (≈ 0.315 µM) | 0.025 µg/mL (≈ 0.0787 µM) | 0.05 µg/mL (≈ 0.157 µM) | 0.39 µg/mL | 0.05 µg/mL (≈ 0.157 µM) | 0.05 µg/mL (≈ 0.157 µM) | 0.025 µg/mL (≈ 0.0787 µM) | 
2 | CCc1ccccc1C(=NN(C)C)n1ccnc1 [Compound No. 4, N′-[1-(2-ethylphenyl)-1-imidazol-1-ylmethylidene]-N,N-dimethylhydrazine] | 0.39 µg/mL (≈ 1.61 µM) | 0.78 µg/mL (≈ 3.22 µM) | 0.39 µg/mL (≈ 1.61 µM) | 0.78 µg/mL | > 25 µg/mL | 0.78 µg/mL (≈ 3.22 µM) | 0.78 µg/mL (≈ 3.22 µM) | 
3 | CCOc1ccccc1C(=NN(C)C)n1ccnc1 [Compound No. 16, N′-[1-(2-ethoxyphenyl)-1-imidazol-1-ylmethylidene]-N,N-dimethylhydrazine] | 0.2 µg/mL (≈ 0.774 µM) | 0.2 µg/mL (≈ 0.774 µM) | 0.39 µg/mL (≈ 1.51 µM) | 0.39 µg/mL | 12.5 µg/mL (≈ 48.4 µM) | 0.39 µg/mL (≈ 1.51 µM) | 0.2 µg/mL (≈ 0.774 µM) | 
4 | CCCOc1ccccc1C(=NN(C)C)n1ccnc1 [Compound No. 17, N′-[1-imidazol-1-yl-1-(2-propoxyphenyl)methylidene]-N,N-dimethylhydrazine] | 0.2 µg/mL (≈ 0.734 µM) | 0.2 µg/mL (≈ 0.734 µM) | 0.05 µg/mL (≈ 0.184 µM) | 0.1 µg/mL | 3.13 µg/mL (≈ 11.5 µM) | 0.39 µg/mL (≈ 1.43 µM) | 0.2 µg/mL (≈ 0.734 µM) | 
5 | C=CCOc1ccccc1C(=NN(C)C)n1ccnc1 [Compound No. 20, N′-[1-(2-allyloxyphenyl)-1-imidazol-1-ylmethylidene]-N,N-dimethylhydrazine] | 0.2 µg/mL (≈ 0.74 µM) | 0.1 µg/mL (≈ 0.37 µM) | 0.1 µg/mL (≈ 0.37 µM) | 0.2 µg/mL | 12.5 µg/mL (≈ 46.2 µM) | 0.39 µg/mL (≈ 1.44 µM) | 0.1 µg/mL (≈ 0.37 µM) | 
6 | C/C=C\Oc1ccccc1C(=NN(C)C)n1ccnc1 [Compound No. 21, N′-[1-imidazol-1-yl-1-(2-(Z)-propenyloxyphenyl)methylidene]-N,N-dimethylhydrazine] | 0.2 µg/mL (≈ 0.74 µM) | 0.2 µg/mL (≈ 0.74 µM) | 0.2 µg/mL (≈ 0.74 µM) | 0.2 µg/mL | 6.25 µg/mL (≈ 23.1 µM) | 0.39 µg/mL (≈ 1.44 µM) | 0.2 µg/mL (≈ 0.74 µM) | 
7 | CCCCOc1ccccc1C(=NN(C)C)n1ccnc1 [Compound No. 23, N′-[1-(2-butoxyphenyl)-1-imidazol-1-ylmethylidene]-N,N-dimethylhydrazine] | 0.1 µg/mL (≈ 0.349 µM) | 0.1 µg/mL (≈ 0.349 µM) | 0.1 µg/mL (≈ 0.349 µM) | 0.2 µg/mL | 0.39 µg/mL (≈ 1.36 µM) | 0.2 µg/mL (≈ 0.698 µM) | 0.1 µg/mL (≈ 0.349 µM) | 
8 | CN(C)N=C(c1ccccc1OC(F)(F)F)n1ccnc1 [Compound No. 32, N′-[1-imidazol-1-yl-1-(2-trifluoromethoxyphenyl)methylidene]-N,N-dimethylhydrazine] | 0.2 µg/mL (≈ 0.671 µM) | 0.39 µg/mL (≈ 1.31 µM) | 0.1 µg/mL (≈ 0.335 µM) | 0.2 µg/mL | 6.25 µg/mL (≈ 21 µM) | 0.78 µg/mL (≈ 2.62 µM) | 0.39 µg/mL (≈ 1.31 µM) | 
9 | CN(C)N=C(c1ccccc1OC(F)(F)C(F)F)n1ccnc1 [Compound No. 33, N′-[1-imidazol-1-yl-1-[2-(1,1,2,2-tetrafluoroethoxy)phenyl]methylidene]-N,N-dimethylhydrazine] | 0.78 µg/mL (≈ 2.36 µM) | 0.78 µg/mL (≈ 2.36 µM) | 0.39 µg/mL (≈ 1.18 µM) | 0.39 µg/mL | 6.25 µg/mL (≈ 18.9 µM) | 1.56 µg/mL (≈ 4.72 µM) | 0.39 µg/mL (≈ 1.18 µM) | 

Next, values leading:

Row | MIC [1] | MIC [2] | MIC [3, 7] | MIC [3, 8] | MIC [4] | MIC [5] | MIC [6] | MIC increase by the addition of keratin to medium [3] | SMILES
10 | 0.2 µg/mL (≈ 0.53 µM) | 0.2 µg/mL (≈ 0.53 µM) | 0.1 µg/mL (≈ 0.265 µM) | 0.2 µg/mL | 0.2 µg/mL (≈ 0.53 µM) | 0.39 µg/mL (≈ 1.03 µM) | 0.1 µg/mL (≈ 0.265 µM) |  | CN(C)N=C(c1ccccc1OCCc1ccc(N(C)C)cc1)n1ccnc1 [Compound No. 60, N′-[1-imidazol-1-yl-1-[2-(4-dimethylaminophenethyloxy)phenyl]methylidene]-N,N-dimethylhydrazine]
11 | 0.2 µg/mL (≈ 0.526 µM) | 0.05 µg/mL (≈ 0.131 µM) | 0.2 µg/mL (≈ 0.526 µM) | 0.39 µg/mL | 1.56 µg/mL (≈ 4.1 µM) | 0.39 µg/mL (≈ 1.03 µM) | 0.05 µg/mL (≈ 0.131 µM) |  | COc1ccc(OCCOc2ccccc2C(=NN(C)C)n2ccnc2)cc1 [Compound No. 69, N′-[1-imidazol-1-yl-1-[2-[2-(4-methoxyphenoxy)ethoxy]phenyl]methylidene]-N,N-dimethylhydrazine]
12 | 0.2 µg/mL (≈ 0.729 µM) | 0.39 µg/mL (≈ 1.42 µM) | 0.78 µg/mL (≈ 2.84 µM) | 0.78 µg/mL | 12.5 µg/mL (≈ 45.6 µM) | 0.78 µg/mL (≈ 2.84 µM) | 0.39 µg/mL (≈ 1.42 µM) |  | CCSc1ccccc1C(=NN(C)C)n1ccnc1 [Compound No. 80, N′-[1-(2-ethylthiophenyl)-1-imidazol-1-ylmethylidene]-N,N-dimethylhydrazine]
13 | 0.2 µg/mL (≈ 0.693 µM) | 0.39 µg/mL (≈ 1.35 µM) | 0.39 µg/mL (≈ 1.35 µM) | 0.39 µg/mL | 3.13 µg/mL (≈ 10.9 µM) | 0.39 µg/mL (≈ 1.35 µM) | 0.2 µg/mL (≈ 0.693 µM) |  | CCCSc1ccccc1C(=NN(C)C)n1ccnc1 [Compound No. 81, N′-[1-imidazol-1-yl-1-(2-propylthiophenyl)methylidene]-N,N-dimethylhydrazine]
14 | 0.2 µg/mL (≈ 0.682 µM) | 0.2 µg/mL (≈ 0.682 µM) | 0.39 µg/mL (≈ 1.33 µM) | 0.78 µg/mL | 25 µg/mL (≈ 85.2 µM) | 0.39 µg/mL (≈ 1.33 µM) | 0.2 µg/mL (≈ 0.682 µM) |  | CN(C)N=C(c1cccn1Cc1ccccc1)n1ccnc1 [Compound No. 105, N′-[1-(1-benzylpyrrol-2-yl)-1-imidazol-1-ylmethylidene]-N,N-dimethylhydrazine]
15 | 0.1 µg/mL (≈ 0.142 µM) | 0.1 µg/mL (≈ 0.142 µM) | 0.05 µg/mL (≈ 0.0709 µM) | 25 µg/mL | 0.05 µg/mL (≈ 0.0709 µM) | 0.2 µg/mL (≈ 0.283 µM) | 0.05 µg/mL (≈ 0.0709 µM) |  | CCC(C)n1ncn(-c2ccc(N3CCN(c4ccc(OCC5COC(Cn6cncn6)(c6ccc(Cl)cc6Cl)O5)cc4)CC3)cc2)c1=O (centres unmarked) [ITCZ, itraconazole, reference compound]
16 |  |  |  |  |  |  |  | 8 fold | CCC(C)(C)c1ccc(CC(C)CN2C[C@@H](C)O[C@@H](C)C2)cc1 (some centres unmarked) [amorolfine, reference compound]
17 |  |  |  |  |  |  |  | 512 fold | CCC(C)n1ncn(-c2ccc(N3CCN(c4ccc(OCC5COC(Cn6cncn6)(c6ccc(Cl)cc6Cl)O5)cc4)CC3)cc2)c1=O (centres unmarked) [itraconazole, reference compound]
